Assay results reported in US20050150764A1 (priority 2001, published 2005).

Tests used:
[1] = logP (pH 2)
[2] = tested on: Heliothis virescens caterpillars; experiment: Heliothis virescens test (Example A); type: in vivo; details: 500 ppm, after 6 days, soya shoots dipped
Protocol: Heliothis virescens Test [table] To produce a suitable preparation of active compound, 1 part by weight of active compound is mixed with the stated amounts of solvent and emulsifier, and the concentrate is diluted with emulsifier-containing water to the desired concentration. Soya shoots (Glycine max) are treated by being dipped into the preparation of active compound at the desired concentration and are populated with Heliothis virescens caterpillars while the leaves are still moist. After the desired period of time, the kill in % is determined. 100% means that all of the caterpillars have been killed: 0% denotes that no caterpillars have been killed.

[3] = tested on: caterpillars of the cabbage moth (Plutella xylostella); experiment: Plutella test (Example C); type: in vivo; details: 500 ppm, after 6 days, cabbage leaves dipped
Protocol: (§1) Plutella test [table] To produce a suitable preparation of active compound, 1 part by weight of active compound is mixed with the stated amounts of solvent and emulsifier, and the concentrate is diluted with emulsifier-containing water to the desired concentration. Cabbage leaves (Brassica oleracea) are treated by being dipped into the preparation of active compound at the desired concentration and are populated with caterpillars of the cabbage moth (Plutella xylostella) while the leaves are still moist. After the desired period of time, the kill in % is determined. 100% means that all of the caterpillars have been killed: 0% denotes that no caterpillars have been killed.

[4] = tested on: caterpillars of the army worm (Spodoptera exigua); experiment: Spodoptera exigua test (Example D); type: in vivo; details: 500 ppm, after 6 days, cabbage leaves dipped
Protocol: as §1, with “Spodoptera exigua Test” for “Plutella test”, “army worm (Spodoptera exigua)” for “cabbage moth (Plutella xylostella)”

[5] = tested on: Heliothis virescens caterpillars; experiment: Activity duration test: Heliothis virescens (Example F); type: in vivo; details: 20 ppm, cotton plants sprayed
Protocol: Activity Duration Test: Heliothis virescens [table] To produce a suitable preparation of active compound, 1 part by weight of active compound is mixed with the stated amounts of solvent and emulsifier, and the concentrate is diluted with emulsifier-containing water to the desired concentration. Cotton plants (Gossypium hirsutum) are sprayed with a preparation of the active compound in the desired concentration. After the number of days indicated, Heliothis virescens caterpillars are placed onto the treated leaves in infection chambers. After the desired period of time, the kill in % is determined. 100% means that all of the caterpillars have been killed: 0% denotes that no caterpillars have been killed.

[6] = tested on: caterpillars of the army worm (Spodoptera frugiperda); experiment: Activity duration test: Spodoptera frugiperda (Example G); type: in vivo; details: 20 ppm, cotton plants sprayed
Protocol: Activity Duration Test: Spodoptera frugiperda [table] To produce a suitable preparation of active compound, 1 part by weight of active compound is mixed with the stated amounts of solvent and emulsifier, and the concentrate is diluted with emulsifier-containing water to the desired concentration. Cotton plants (Gossypium hirsutum) are sprayed with a preparation of the active compound in the desired concentration. After the number of days indicated, caterpillars of the army worm (Spodoptera frugiperda) are placed onto the treated leaves in infection chambers. After the desired period of time, the kill in % is determined. 100% means that all of the caterpillars have been killed: 0% denotes that no caterpillars have been killed.

[7] = not given; remark: listed apart in the source

melting point [°C]	logP [1]	logP (pH 2)/ m.p. [° C.] (logP part) [7]	Structure (SMILES)	kill [2] [%]	kill [3] [%]	kill [4] [%]	kill ([5]; infection after 5 days) [%]	kill ([5]; infection after 12 days) [%]	kill ([5]; infection after 19 days) [%]	kill ([5]; infection after 26 days) [%]	Degree of kill in % ([6]; infection after 5 days) [%]	Degree of kill in % ([6]; infection after 12 days) [%]	Degree of kill in % ([6]; infection after 19 days) [%]	Degree of kill in % ([6]; infection after 26 days) [%]
171	2.29		N#Cc1cccc(C2=NNCCC2n2cc(Cl)cn2)c1 (centres unmarked) [II-1, 3-(3-cyanophenyl)-4-(4-chloropyrazol-1-yl)-1,4,5,6-tetrahydropyridazine]											
216	4.08		N#Cc1cccc(C2=NN(C(=O)Nc3ccc(OC(F)(F)F)cc3)CCC2n2cc(Cl)cn2)c1 (centres unmarked) [Example 1, 3-(3-cyanophenyl)-4-(4-chloropyrazol-1-yl)-1-(4-trifluoromethoxyphenylamino)carbonyl-1,4,5,6-tetrahydropyridazine]	100	100	100								
		4.77/196	O=C(Nc1ccc(C(F)(F)F)cc1)N1CCC(n2cc(Cl)cn2)C(c2cccc(Br)c2)=N1 (centres unmarked) [Example 13]	100	100	100								
		4.44/182	N#Cc1cccc(C2=NN(C(=O)Nc3ccc(SC(F)(F)F)cc3)CCC2n2cc(Cl)cn2)c1 (centres unmarked) [Example 17]	100	100	100								
		4.81/166	O=C(Nc1ccc(SC(F)(F)F)cc1)N1CCC(n2cc(Cl)cn2)C(c2cccc(F)c2)=N1 (centres unmarked) [Example 15]	100	100	100					90	90	80	90

Structure (SMILES)	melting point [°C]	logP [1]	logP (pH 2)/ m.p. [° C.] (logP part) [7]	kill [2] [%]	kill [3] [%]	kill [4] [%]	kill ([5]; infection after 5 days) [%]	kill ([5]; infection after 12 days) [%]	kill ([5]; infection after 19 days) [%]	kill ([5]; infection after 26 days) [%]	Degree of kill in % ([6]; infection after 5 days) [%]	Degree of kill in % ([6]; infection after 12 days) [%]	Degree of kill in % ([6]; infection after 19 days) [%]	Degree of kill in % ([6]; infection after 26 days) [%]
O=C(Nc1ccc(C(F)(F)F)cc1)N1CCC(n2cc(Cl)cn2)C(c2cccc(C(F)(F)F)c2)=N1 (centres unmarked) [Example 14]			4.79/176	100	100	100	100	100	100	100	90	80	70	90
